Measurements published in US20240279201A1, “DUAL WNT SIGNALING PATHWAY INHIBITORS AND AMPK ACTIVATORS FOR TREATMENTS OF DISEASE” (priority 2021, published 2024).

Legend:
[1] = tested on: Wnt/β-Catenin signaling pathway; test: Wnt signaling luciferase (TOPflash) reporter gene assay; format: cell-based; settings: for IC50: luciferase reporter gene assay, mean of three independent experiments, read-out: IC50 (nM) to inhibit the Wnt signaling activity
Source text: A dual-luciferase gene reporter assay was used to test inhibitory activities of new compounds on Wnt signaling. […] Therefore, the effects of new compounds on AMPK was examined. […]

[2] = Cytotoxicity (CC50) during the luciferase gene reporter assay; format: cell-based; settings: human, HEK293 cells; short treatment duration of the luciferase gene reporter assay

| SMILES | IC50 [1] | CC50 [2] | inhibition at 1 µM [1] | inhibitory activity in the reporter assay ([1]; biotinylated analogs) |
| --- | --- | --- | --- | --- |
| Cc1c(C(=O)Nc2nc3ccccc3s2)cnn1-c1ccccc1 [YA4011, N-(Benzo[d]thiazol-2-yl)-5-methyl-1-phenyl-1H-pyrazole-4-carboxamide] | 8.2 nM | > 92000 nM | – | – |
| Cc1ccccc1-n1nnc(C(=O)Nc2nc3cc(Cl)ccc3s2)c1C [YA4013, N-(5-Chlorobenzo[d]thiazol-2-yl)-5-methyl-1-(o-tolyl)-1H-1,2,3-triazole-4-carboxamide] | 202 nM | > 92000 nM | 61% | – |
| O=C(Nc1ccc2ccccc2n1)c1nnn(-c2ccccc2Cl)n1 [YA70033, 2-(2-Chlorophenyl)-N-(quinolin-2-yl)-2H-tetrazole-5-carboxamide] | > 1000 nM | > 92000 nM | – | – |
| Cc1c(C(=O)Nc2nc3ccccc3s2)cnn1-c1c(F)cccc1F [YA4019, N-(benzo[d]thiazol-2-yl)-1-(2,6-difluorophenyl)-5-methyl-1H-pyrazole-4-carboxamide] | 0.9 nM | > 92000 nM | – | – |
| Cc1ccccc1-n1nnc(C(=O)Nc2cc(Br)c3ccccc3n2)c1C [YA6150, N-(4-bromoquinolin-2-yl)-5-methyl-1-(o-tolyl)-1H-1,2,3-triazole-4-carboxamide] | > 1000 nM | > 92000 nM | – | – |
| Cc1ccc(-n2nnc(C(=O)Nc3nc4ccccc4s3)c2C)c(C)c1 [YA4039] | 17 nM | > 92000 nM | 88% | – |
| COc1ccc2nc(NC(=O)c3nnn(-c4ccccc4C)c3C)sc2c1 [YA4091, N-(6-Methoxybenzo[d]thiazol-2-yl)-5-methyl-1-(o-tolyl)-1H-1,2,3-triazole-4-carboxamide] | > 1000 nM | > 92000 nM | 12% | – |
| Cc1c(C(=O)Nc2nc(-c3ccccc3)cs2)cnn1-c1ccccc1Br [YA4087, 1-(2-Bromophenyl)-5-methyl-N-(4-phenylthiazol-2-yl)-1H-pyrazole-4-carboxamide] | > 1000 nM | > 92000 nM | – | – |
| Cc1ccccc1-n1nnc(C(=O)Nc2ccc3cnccc3c2)c1C [YA61692, N-(Isoquinolin-6-yl)-5-methyl-1-(o-tolyl)-1H-1,2,3-triazole-4-carboxamide] | > 1000 nM | > 92000 nM | – | – |
| Cc1ccccc1-n1nnc(C(=O)Nc2nc3ccc([N+](=O)[O-])cc3s2)c1C [YA4057, 5-Methyl-N-(6-nitrobenzo[d]thiazol-2-yl)-1-(o-tolyl)-1H-1,2,3-triazole-4-carboxamide] | > 1000 nM | > 92000 nM | – | – |
| Cc1c(C(=O)Nc2cnc3ccccc3n2)nnn1-c1ccccc1F [YA6138, 1-(2-Fluorophenyl)-5-methyl-N-(quinoxalin-2-yl)-1H-1,2,3-triazole-4-carboxamide] | 0.15 nM | > 92000 nM | – | – |
| O=C(Nc1nc2ccccc2s1)c1cnn(-c2ccccc2)c1 [YA6149, N-(Benzo[d]thiazol-2-yl)-1-phenyl-1H-pyrazole-4-carboxamide] | – | > 92000 nM | – | – |
| Cc1ccccc1-n1nnc(C(=O)Nc2ccc3cccnc3c2)c1C [YA6162, 5-Methyl-N-(quinolin-7-yl)-1-(o-tolyl)-1H-1,2,3-triazole-4-carboxamide] | > 1000 nM | > 92000 nM | – | – |
| CC(C)c1c(C(=O)Nc2nc3ccccc3s2)nnn1-c1ccccc1F [YA4005, N-(Benzo[d]thiazol-2-yl)-1-(2-fluorophenyl)-5-isopropyl-1H-1,2,3-triazole-4-carboxamide] | 8.8 nM | > 92000 nM | 99% | – |
| CC(C)c1c(C(=O)Nc2nc3ccc(F)cc3s2)nnn1-c1ccccc1F [YA6172, N-(6-Fluorobenzo[d]thiazol-2-yl)-1-(2-fluorophenyl)-5-isopropyl-1H-1,2,3-triazole-4-carboxamide] | 7.6 nM | > 92000 nM | 98% | – |
| Cc1c(C(=O)Nc2nc3ccccc3s2)cnn1-c1ccccc1Br [YA4033, N-(Benzo[d]thiazol-2-yl)-1-(2-bromophenyl)-5-methyl-1H-pyrazole-4-carboxamide] | 5.8 nM | > 92000 nM | – | – |
| Cc1c(C(=O)Nc2nc3ccccc3s2)nnn1-c1cccc(F)c1 [YA1072, N-(Benzo[d]thiazol-2-yl)-1-(3-fluorophenyl)-5-methyl-1H-1,2,3-triazole-4-carboxamide] | > 1000 nM | > 92000 nM | 42% | – |
| Cc1ccccc1-n1nnc(C(=O)Nc2nc(-c3ccccc3Br)cs2)c1C [YA4135] | > 1000 nM | > 92000 nM | – | – |
| Cc1ccccc1-n1nnc(C(=O)Nc2cc3ccccc3cn2)c1C [YA6164, N-(Isoquinolin-3-yl)-5-methyl-1-(o-tolyl)-1H-1,2,3-triazole-4-carboxamide] | > 1000 nM | > 92000 nM | – | – |
| Cc1c(C(=O)Nc2nc3ccccc3s2)nnn1-c1ccccc1 [YA6029, N-(Benzo[d]thiazol-2-yl)-5-methyl-1-phenyl-1H-1,2,3-triazole-4-carboxamide] | 7.82 nM | > 92000 nM | 81% | – |
| Cc1ccccc1-n1nnc(C(=O)Nc2cc(CN3CCN(C(=O)OC(C)(C)C)CC3)c3ccccc3n2)c1C [YA6159, tert-Butyl 4-((2-(5-methyl-1-(o-tolyl)-1H-1,2,3-triazole-4-carboxamido)quinolin-4-yl)methyl)piperazine-1-carboxylate] | > 1000 nM | > 92000 nM | – | – |

| SMILES | IC50 [1] | CC50 [2] | inhibition at 1 µM [1] | inhibitory activity in the reporter assay ([1]; biotinylated analogs) |
| --- | --- | --- | --- | --- |
| Cc1ccccc1-n1nnc(C(=O)Nc2ccc3ccc(Br)cc3n2)c1C [YA1126, N-(7-Bromoquinolin-2-yl)-5-methyl-1-(o-tolyl)-1H-1,2,3-triazole-4-carboxamide] | > 1000 nM | > 92000 nM | – | – |
| Cc1ccccc1-n1nnc(C(=O)Nc2nc3ccccc3o2)c1C [YA4067] | > 1000 nM | > 92000 nM | 14% | – |
| COc1ccccc1-n1ncc(C(=O)Nc2nc3ccccc3s2)c1C [YA7020, N-(Benzo[d]thiazol-2-yl)-1-(2-methoxyphenyl)-5-methyl-1H-pyrazole-4-carboxamide] | 9.5 nM | > 92000 nM | – | – |
| Cc1ccccc1-n1nnc(C(=O)Nc2cccc3ncccc23)c1C [YA61693, 5-Methyl-N-(quinolin-5-yl)-1-(o-tolyl)-1H-1,2,3-triazole-4-carboxamide] | > 1000 nM | > 92000 nM | – | – |
| Cc1c(C(=O)Nc2nc3ccccc3s2)nnn1-c1c(Cl)cccc1Cl [YA1066, N-(Benzo[d]thiazol-2-yl)-1-(2,6-dichlorophenyl)-5-methyl-1H-1,2,3-triazole-4-carboxamide] | 19 nM | > 92000 nM | 88% | – |
| Cc1ccccc1-n1ncc(C(=O)Nc2nc3ccccc3s2)c1C [YA6179, N-(Benzo[d]thiazol-2-yl)-5-methyl-1-(o-tolyl)-1H-pyrazole-4-carboxamide] | 1.4 nM | > 92000 nM | – | – |
| Cc1ccccc1-n1nnc(C(=O)Nc2ccc3ncccc3n2)c1C [YA6147, 5-Methyl-N-(1,5-naphthyridin-2-yl)-1-(o-tolyl)-1H-1,2,3-triazole-4-carboxamide] | > 1000 nM | > 92000 nM | – | – |
| Cc1c(C(=O)Nc2nc3ccccc3s2)cnn1-c1ccccc1Cl [YA4025, N-(Benzo[d]thiazol-2-yl)-1-(2-chlorophenyl)-5-methyl-1H-pyrazole-4-carboxamide] | 0.4 nM | > 92000 nM | – | – |
| Cc1cc(Br)ccc1-n1nnc(C(=O)Nc2nc3ccccc3s2)c1C [YA6009] | > 1000 nM | > 92000 nM | 15% | – |
| Cc1ccccc1-n1nnc(C(=O)Nc2nc3c(Br)cccc3s2)c1C [YA4097, N-(4-Bromobenzo[d]thiazol-2-yl)-5-methyl-1-(o-tolyl)-1H-1,2,3-triazole-4-carboxamide] | > 1000 nM | > 92000 nM | 11% | – |
| Cc1cccc(-n2nnc(C(=O)Nc3nc4ccccc4s3)c2C)c1C [YA4037] | 18 nM | > 92000 nM | 83% | – |
| Cc1c(C(=O)Nc2nc3ccccc3s2)nnn1-c1ccc(Cl)cc1 [YA1074, N-(Benzo[d]thiazol-2-yl)-1-(4-chlorophenyl)-5-methyl-1H-1,2,3-triazole-4-carboxamide] | > 1000 nM | > 92000 nM | 18% | – |
| Cc1ccccc1-n1nnc(C(=O)Nc2cnc3ccccc3c2)c1C [YA6161, 5-Methyl-N-(quinolin-3-yl)-1-(o-tolyl)-1H-1,2,3-triazole-4-carboxamide] | > 1000 nM | > 92000 nM | – | – |
| Cc1ccccc1-n1nnc(C(=O)Nc2nc3ccc(OC(F)(F)F)cc3s2)c1C [YA4065, 5-Methyl-1-(o-tolyl)-N-(6-(trifluoromethoxy)benzo[d]thiazol-2-yl)-1H-1,2,3-triazole-4-carboxamide] | > 1000 nM | > 92000 nM | 16% | – |
| Cc1c(C(=O)Nc2nc3ccc(F)cc3s2)nnn1-c1ccccc1F [YA4155, N-(6-Fluorobenzo[d]thiazol-2-yl)-1-(2-fluorophenyl)-5-methyl-1H-1,2,3-triazole-4-carboxamide] | 0.4 nM | > 92000 nM | 96% | – |
| CC(C)c1c(C(=O)Nc2nc3ccccc3s2)cnn1-c1ccccc1 [YA6144, N-(Benzo[d]thiazol-2-yl)-5-isopropyl-1-phenyl-1H-pyrazole-4-carboxamide] | > 1000 nM | > 92000 nM | – | – |
| Cc1c(C(=O)Nc2nc3ccccc3s2)nnn1-c1cccc(Br)c1 [YA1050, N-(Benzo[d]thiazol-2-yl)-1-(3-bromophenyl)-5-methyl-1H-1,2,3-triazole-4-carboxamide] | > 1000 nM | > 92000 nM | 7% | – |
| Cc1c(C(=O)Nc2nc3ccccc3s2)nnn1-c1cccc(Cl)c1 [YA4055, N-(Benzo[d]thiazol-2-yl)-1-(3-chlorophenyl)-5-methyl-1H-1,2,3-triazole-4-carboxamide] | – | > 92000 nM | – | – |
| Cc1cc(/C=C/c2ccc3cc(N(C)C)ccc3[n+]2C)c(C)n1-c1ccccc1 [Pyrvinium, reference compound] | 599 nM | – | 69% | – |
| Cc1ccccc1-n1nnc(C(=O)Nc2ccc3cc(CN4CCN(C(=O)CCOCCOCCOCCOCCNC(=O)CCCC[C@@H]5SC[C@@H]6NC(=O)N[C@@H]65)CC4)ccc3n2)c1C [YA6023] | – | – | – | maintained inhibitory activities |
